Tested on: 935938-334-R-J1-PDC complex spheroid viability
Test: Anticancer human tumor 935938-334-R-J1-PDC patient-derived small intestine adenocarcinoma cell line growth inhibition [POLQ]
Conditions: for IC50: curve of first compound; for viability, T/C: stronger effect = lower value
In short: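 Patient-derived tumour cells were co-cultured with HUVEC and mesenchymal stem cells as multicellular spheroids at 37 °C. They were treated with POLQ inhibitors (novobiocin, ART-558, RP6685) alone or combined with other agents. Top concentrations were at or near clinical Cmax (otherwise 10 microM; SN-38 at 1 microM), decreasing in half-log steps.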

[1] = second compound 0.0316 µM, first compound 0.0316 µM
[2] = second compound 0.0316 µM, first compound 0.1 µM
[3] = second compound 0.0316 µM, first compound 0.316 µM
[4] = second compound 0.0316 µM, first compound 1 µM
[5] = second compound 0.1 µM, first compound 0.0316 µM
[6] = second compound 0.1 µM, first compound 0.1 µM
[7] = second compound 0.1 µM, first compound 0.316 µM
[8] = second compound 0.1 µM, first compound 1 µM
[9] = second compound 0.316 µM, first compound 0.0316 µM
[10] = second compound 0.316 µM, first compound 0.1 µM
[11] = second compound 0.316 µM, first compound 0.316 µM
[12] = second compound 0.316 µM, first compound 1 µM
[13] = second compound 1 µM, first compound 0.0316 µM
[14] = second compound 1 µM, first compound 0.1 µM
[15] = second compound 1 µM, first compound 0.316 µM
[16] = second compound 1 µM, first compound 1 µM
[17] = second compound 3.16 µM, first compound 0.0316 µM
[18] = second compound 3.16 µM, first compound 0.1 µM
[19] = second compound 3.16 µM, first compound 0.316 µM
[20] = second compound 3.16 µM, first compound 1 µM
[21] = second compound 10 µM, first compound 0.0316 µM
[22] = second compound 10 µM, first compound 0.1 µM
[23] = second compound 10 µM, first compound 0.316 µM
[24] = second compound 10 µM, first compound 1 µM
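Also: spheroids exposed to drugs for seven days before viability read.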
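For viability, T/C in this document: 100% = DMSO vehicle control wells.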

COc1cccc(OCCCN)c1-c1cc(Nc2cnc(C#N)cn2)n[nH]1 + COC1C(OC(N)=O)C(O)C(Oc2ccc3c(O)c(NC(=O)c4ccc(O)c(CC=C(C)C)c4)c(=O)oc3c2C)OC1(C)C
IC50 (second compound 0.0316 µM): 49.6 nM
IC50 (second compound 0.1 µM): 38.7 nM
IC50 (second compound 0.316 µM): 47.9 nM
IC50 (second compound 1 µM): 36.9 nM
IC50 (second compound 3.16 µM): 36.9 nM
IC50 (second compound 10 µM): 27.8 nM
viability, T/C (second compound 0.0316 µM, first compound 0.00316 µM): 90.2%
viability, T/C (second compound 0.0316 µM, first compound 0.01 µM): 88.9%
viability, T/C [1]: 65.2%
viability, T/C [2]: 25.8%
viability, T/C [3]: 12.1%
viability, T/C [4]: 9.12%
viability, T/C (second compound 0.1 µM, first compound 0.00316 µM): 100%
viability, T/C (second compound 0.1 µM, first compound 0.01 µM): 89.1%
viability, T/C [5]: 54.5%
viability, T/C [6]: 25.4%
viability, T/C [7]: 12.5%
viability, T/C [8]: 9.92%
viability, T/C (second compound 0.316 µM, first compound 0.00316 µM): 89.2%
viability, T/C (second compound 0.316 µM, first compound 0.01 µM): 79.7%
viability, T/C [9]: 64.2%
viability, T/C [10]: 26.6%
viability, T/C [11]: 10.6%
viability, T/C [12]: 9.51%
viability, T/C (second compound 1 µM, first compound 0.00316 µM): 113%
viability, T/C (second compound 1 µM, first compound 0.01 µM): 85.1%
viability, T/C [13]: 57.5%
viability, T/C [14]: 23.7%
viability, T/C [15]: 11.1%
viability, T/C [16]: 8.98%
viability, T/C (second compound 3.16 µM, first compound 0.00316 µM): 80.7%
viability, T/C (second compound 3.16 µM, first compound 0.01 µM): 89.8%
viability, T/C [17]: 52%
viability, T/C [18]: 22.3%
viability, T/C [19]: 11.1%
viability, T/C [20]: 9%
viability, T/C (second compound 10 µM, first compound 0.00316 µM): 84.4%
viability, T/C (second compound 10 µM, first compound 0.01 µM): 91.6%
viability, T/C [21]: 45.3%
viability, T/C [22]: 15.4%
viability, T/C [23]: 11.8%
viability, T/C [24]: 8.31%

COc1cccc2c1C(=O)c1c(O)c3c(c(O)c1C2=O)CC(O)(C(=O)CO)CC3OC1CC(N)C(O)C(C)O1 (centres undefined) + Nc1ccc(C#CCN(C(=O)Cc2ncc(C(F)(F)F)cc2C(F)(F)F)c2ccc(F)cc2)nn1
IC50 (second compound 0.0316 µM): 70.9 nM
IC50 (second compound 0.1 µM): 86.4 nM
IC50 (second compound 0.316 µM): < 31.6 nM
IC50 (second compound 1 µM): 54.6 nM
IC50 (second compound 3.16 µM): 35.3 nM
IC50 (second compound 10 µM): 78.1 nM
viability, T/C [1]: 67.3%
viability, T/C [2]: 39.4%
viability, T/C [3]: 27.4%
viability, T/C [4]: 22.2%
viability, T/C (second compound 0.0316 µM, first compound 3.16 µM): 8.04%
viability, T/C (second compound 0.0316 µM, first compound 10 µM): 3.61%
viability, T/C [5]: 69.9%
viability, T/C [6]: 45.5%
viability, T/C [7]: 31.3%
viability, T/C [8]: 19.6%
viability, T/C (second compound 0.1 µM, first compound 3.16 µM): 7.02%
viability, T/C (second compound 0.1 µM, first compound 10 µM): 3.54%
viability, T/C [9]: 49.8%
viability, T/C [10]: 32.1%
viability, T/C [11]: 30.9%
viability, T/C [12]: 23.7%
viability, T/C (second compound 0.316 µM, first compound 3.16 µM): 8.73%
viability, T/C (second compound 0.316 µM, first compound 10 µM): 3.32%
viability, T/C [13]: 58.9%
viability, T/C [14]: 38.8%
viability, T/C [15]: 30.3%
viability, T/C [16]: 18.8%
viability, T/C (second compound 1 µM, first compound 3.16 µM): 9.11%
viability, T/C (second compound 1 µM, first compound 10 µM): 4.86%
viability, T/C [17]: 52.6%
viability, T/C [18]: 35.4%
viability, T/C [19]: 27.9%
viability, T/C [20]: 20.3%
viability, T/C (second compound 3.16 µM, first compound 3.16 µM): 5.88%
viability, T/C (second compound 3.16 µM, first compound 10 µM): 5.57%
viability, T/C [21]: 68.1%
viability, T/C [22]: 38.4%
viability, T/C [23]: 38%
viability, T/C [24]: 18.9%
viability, T/C (second compound 10 µM, first compound 3.16 µM): 5.97%
viability, T/C (second compound 10 µM, first compound 10 µM): 6.61%
